A short description of series [1]: Photographic gamma (slope of status M green density vs. exposure), C-41 process. As for the experimental part:
(§1) Dispersions of the comparative couplers B1-B3 and B8 and of the couplers of this invention M1-M3 were prepared by dissolving the coupler in the coupler solvent S1 plus the auxiliary solvent 2-(2-butoxyethoxy)ethyl acetate and then dispersing this oil phase in an aqueous solution of gelatin and surfactant using an ultrasonic probe. The dispersions were chilled and washed for 6 hr at 4° C. to remove the auxiliary solvent. The dispersions contained approximately 8.8% coupler, 4.4% S1 and 6% gelatin by weight.
(§2) The dispersions were coated at 1.04 mmole/sq m together with a silver bromoiodide emulsion on a transparent acetate support in the format shown below. Hardened film strips were exposed through a 0-4 neutral density stepwedge and daylight V and WRATTEN 9 filters and subjected to a standard C-41 process at 37.8° C. The process consists of 2.5 min in color developer, 4 min in a ferric EDTA/PDTA bleach solution, 2 min wash, 4 min fix and 2 min final wash. Photographic gamma values were obtained from the slopes of plots of status M green density vs. exposure for processed samples. Absorption spectra of the dye-containing processed films were measured at a density near 1.0 on a spectrophotometer and the wavelengths of maximum absorption (λ max values) were recorded.
(§3) BVSM* Hardener 0.06 g/sq m
(§4) Coupler Solvent S1 1/2 coupler laydown
(§5) Dispersions of couplers B3, M1 and M5 with S1 (1:0.5) were prepared and coated as in Example 2. Film strips of these coatings were exposed, processed and analyzed as in Example 2. λmax values and gamma values associated with these film compositions are listed in Table III. This series further illustrates the use of electron-withdrawing substituents to obtain magenta dyes of the proper hue.
(§6) Dispersions of the comparative couplers B4, B5 and B8 and the couplers of this invention M6-M11 were prepared and coated as in Example 2. The coupler solvent S1 was again used at a 1:0.5 coupler:S1 weight ratio. Film strips of the hardened coatings were exposed, processed and analyzed as in Example 2. Couplers B4 and M6-M8 have a strongly electron-withdrawing alkoxycarbonyl substituent in the R2 position and couplers B5 and M9-M11 have a strongly electron-withdrawing alkylsulfonyl group at R2. […] The couplers of this invention, M6-M11, which have strong electron-withdrawing groups in each ring, yield dyes having the desired bathochromic hues, as shown by the λmax values. The gamma values obtained with the couplers of this invention are suitably high to be useful in photographic materials, as indicated by comparison to the gamma obtained from the commercial coupler B8.
(§7) Dispersions of the comparison couplers B6 and B7, and of the couplers of this invention M12-M17, were prepared using the coupler solvent Sl as in Example 2. These were coated as in Example 2, and hardened film strips were exposed, processed and analyzed as in Example 2. The results obtained are summarized in Table V. In this example all of the couplers have sulfamoyl or alkylsulfonyl substituents in the R1 position and the R2 substituent on the 3-anilino ring is varied. Comparative couplers B6 and B7 have chloro substituents at R2, whereas M12-M17 of this invention have strong electron withdrawing R2 groups. […] The gamma values of the couplers of this invention are similar to those of the comparative couplers.

Series [2] is described as follows: Absorption spectra of dye-containing processed films (λmax), C-41 process. The series is classed as physicochemical. As for the experimental part: as §1, §2, §3, §4, §5, §6, §7
Setting [3] is: Table I, Example 2, coupler:S1 1:0.5.
Setting [4] is: Table IV, Example 5, coupler:S1 1:0.5.
Where [5] appears, read: Table V, Example 6, coupler solvent S1.

Structures are written as SMILES.

In turn, `CCCCCCCCCCCCNS(=O)(=O)c1ccc(NC2=NN(c3c(Cl)cc(OC)cc3Cl)C(=O)C2Sc2cc(C(C)(C)CC(C)(C)C)ccc2OCCCC)c(Cl)c1` (stereo not drawn) [Coupler B1, reference compound] had a Gamma in series [1] (setting [3]) of 4.8. Further, in series [2] (setting [3]), the “λmax(nm) (+-0.5)” value was 539.5 nm.

In turn, `CCCCCCCCCCCCNS(=O)(=O)c1ccc(NC2=NN(c3c(Cl)cccc3Cl)C(=O)C2Sc2cc(C(C)(C)CC(C)(C)C)ccc2OCCCC)c(Cl)c1` (stereo not drawn) [Coupler B2, reference compound] came in with a Gamma in series [1] (setting [3]) of 5.3. Also, in series [2] (setting [3]), the “λmax(nm) (+-0.5)” value amounted to 542.0 nm.

In turn, `CCCCCCCCCCCCOC(=O)c1ccc(NC2=NN(c3c(Cl)cc(Cl)cc3Cl)C(=O)C2Sc2cc(C(C)(C)CC(C)(C)C)ccc2OCCCC)c(Cl)c1` (stereo not drawn) [Coupler B4, reference compound] had a Gamma in series [1] (setting [4]) of 4.1.

Take `CCCCCCCCCCCCS(=O)(=O)c1ccc(NC2=NN(c3c(Cl)cc(Cl)cc3Cl)C(=O)C2Sc2cc(C(C)(C)CC(C)(C)C)ccc2OCCCC)c(Cl)c1` (stereo not drawn) [Coupler B5, reference compound]: in series [1] (setting [4]), the Gamma turned out to be 4.2.

For `CCCCCCCCCCCCNS(=O)(=O)c1cc(Cl)c(N2N=C(Nc3ccc(Cl)cc3Cl)C(Sc3cc(C(C)(C)CC(C)(C)C)ccc3OCCCC)C2=O)c(Cl)c1` (stereo not drawn) [Coupler B6, reference compound], the Gamma in series [1] (setting [5]) was 3.4.

In series [1] (setting [5]), `CCCCCCCCCCCCS(=O)(=O)c1cc(Cl)c(N2N=C(Nc3ccc(Cl)cc3Cl)C(Sc3cc(C(C)(C)CC(C)(C)C)ccc3OCCCC)C2=O)c(Cl)c1` (stereo not drawn) [Coupler B7, reference compound] had a Gamma of 3.3.

Take `CCC(C)(C)c1ccc(OCC(=O)Nc2cccc(C(=O)NC3=NN(c4c(Cl)cc(Cl)cc4Cl)C(=O)C3)c2)c(C(C)(C)CC)c1` [Coupler B8, reference compound]: the Gamma in series [1] (setting [3]) was determined as 2.3; in series [1] (setting [4]), 2.0. The “λmax(nm) (+-0.5)” value in series [2] (setting [3]) amounted to 555.0 nm; in series [2] (setting [4]), 553.0 nm.

In series [1] (setting [3]), `CCCCCCCCCCCCNS(=O)(=O)c1ccc(NC2=NN(c3c(Cl)cc(S(=O)(=O)N4CCOCC4)cc3Cl)C(=O)C2Sc2ccccc2N(C)C(=O)CCCCCCCCCCC)c(Cl)c1` (stereo not drawn) [Coupler M2] returned a Gamma of 3.9. Further, in series [2] (setting [3]), the “λmax(nm) (+-0.5)” value was determined as 551.5 nm.

In turn, `CCCCCCCCCCCCNS(=O)(=O)c1ccc(NC2=NN(c3c(Cl)cc(S(=O)(=O)N4CCOCC4)cc3Cl)C(=O)C2Sc2ccccc2N(CCCCCCCCCCCC)C(=O)C(C)(C)C)c(Cl)c1` (stereo not drawn) [Coupler M3] yielded a Gamma in series [1] (setting [3]) of 4.4. Further, in series [2] (setting [3]), the “λmax(nm) (+-0.5)” value is 551.0 nm.

Take `CCCCCCCCCCCCNS(=O)(=O)c1ccc(NC2=NN(c3c(Cl)cc(C#N)cc3Cl)C(=O)C2Sc2cc(C(C)(C)CC(C)(C)C)ccc2OCCCC)c(Cl)c1` (stereo not drawn) [Coupler M5]: in series [1] (Table III, Example 4, coupler:S1 1:0.5), the Gamma worked out at 3.8.

As to `CCCCCCCCCCCCOC(=O)c1ccc(NC2=NN(c3c(Cl)cc(S(=O)(=O)N4CCOCC4)cc3Cl)C(=O)C2Sc2cc(C(C)(C)CC(C)(C)C)ccc2OCCCC)c(Cl)c1` (stereo not drawn) [Coupler M6], the Gamma in series [1] (setting [4]) is on record as 3.7. Besides, the “λmax(nm) (+-0.5)” value in series [2] (setting [4]) came to 548.5 nm.

On to `CCCCCCCCCCCCOC(=O)c1ccc(NC2=NN(c3c(Cl)cc(S(C)(=O)=O)cc3Cl)C(=O)C2Sc2cc(C(C)(C)CC(C)(C)C)ccc2OCCCC)c(Cl)c1` (stereo not drawn) [Coupler M7], for which the Gamma in series [1] (setting [4]) amounted to 3.1. The “λmax(nm) (+-0.5)” value in series [2] (setting [4]) is 548.5 nm.

Turning to `CCCCCCCCCCCCOC(=O)c1ccc(NC2=NN(c3c(Cl)cc(C#N)cc3Cl)C(=O)C2Sc2cc(C(C)(C)CC(C)(C)C)ccc2OCCCC)c(Cl)c1` (stereo not drawn) [Coupler M8], in series [1] (setting [4]), the Gamma worked out at 4.1. In addition, in series [2] (setting [4]), the “λmax(nm) (+-0.5)” value was 548.5 nm.

In series [1] (setting [4]), `CCCCCCCCCCCCS(=O)(=O)c1ccc(NC2=NN(c3c(Cl)cc(S(=O)(=O)N4CCOCC4)cc3Cl)C(=O)C2Sc2cc(C(C)(C)CC(C)(C)C)ccc2OCCCC)c(Cl)c1` (stereo not drawn) [Coupler M9] displayed a Gamma of 3.2. Moreover, the “λmax(nm) (+-0.5)” value in series [2] (setting [4]) came to 551.0 nm.

Molecule `CCCCCCCCCCCCS(=O)(=O)c1ccc(NC2=NN(c3c(Cl)cc(S(C)(=O)=O)cc3Cl)C(=O)C2Sc2cc(C(C)(C)CC(C)(C)C)ccc2OCCCC)c(Cl)c1` (stereo not drawn) [Coupler M10] displayed a Gamma in series [1] (setting [4]) of 3.2. Moreover, in series [2] (setting [4]), the “λmax(nm) (+-0.5)” value is given as 551.0 nm.

`CCCCCCCCCCCCNS(=O)(=O)c1cc(Cl)c(N2N=C(Nc3ccc(S(=O)(=O)N4CCOCC4)cc3Cl)C(Sc3cc(C(C)(C)CC(C)(C)C)ccc3OCCCC)C2=O)c(Cl)c1` (stereo not drawn) [Coupler M12] had a Gamma in series [1] (setting [5]) of 3.1. In addition, the “λmax(nm) (+-0.5)” value in series [2] (setting [5]) was determined as 549.5 nm.

Regarding `CCCCCCCCCCCCNS(=O)(=O)c1cc(Cl)c(N2N=C(Nc3ccc(S(C)(=O)=O)cc3Cl)C(Sc3cc(C(C)(C)CC(C)(C)C)ccc3OCCCC)C2=O)c(Cl)c1` (stereo not drawn) [Coupler M13], the Gamma in series [1] (setting [5]) was 3.9. In addition, the “λmax(nm) (+-0.5)” value in series [2] (setting [5]) is 549.5 nm.

`CCCCCCCCCCCCNS(=O)(=O)c1cc(Cl)c(N2N=C(Nc3ccc(C#N)cc3Cl)C(Sc3cc(C(C)(C)CC(C)(C)C)ccc3OCCCC)C2=O)c(Cl)c1` (stereo not drawn) [Coupler M14] displayed a Gamma in series [1] (setting [5]) of 3.1. The “λmax(nm) (+-0.5)” value in series [2] (setting [5]) is reported as 550.5 nm.

For the molecule `CCCCCCCCCCCCS(=O)(=O)c1cc(Cl)c(N2N=C(Nc3ccc(S(=O)(=O)N4CCOCC4)cc3Cl)C(Sc3cc(C(C)(C)CC(C)(C)C)ccc3OCCCC)C2=O)c(Cl)c1` (stereo not drawn) [Coupler M15], the Gamma in series [1] (setting [5]) was found to be 3.4. In addition, the “λmax(nm) (+-0.5)” value in series [2] (setting [5]) is recorded as 551.0 nm.

Regarding `CCCCCCCCCCCCS(=O)(=O)c1cc(Cl)c(N2N=C(Nc3ccc(S(C)(=O)=O)cc3Cl)C(Sc3cc(C(C)(C)CC(C)(C)C)ccc3OCCCC)C2=O)c(Cl)c1` (stereo not drawn) [Coupler M16], in series [1] (setting [5]), the Gamma stood at 3.2. In series [2] (setting [5]), the “λmax(nm) (+-0.5)” value amounted to 550.5 nm.

On to `CCCCCCCCCCCCS(=O)(=O)c1cc(Cl)c(N2N=C(Nc3ccc(C#N)cc3Cl)C(Sc3cc(C(C)(C)CC(C)(C)C)ccc3OCCCC)C2=O)c(Cl)c1` (stereo not drawn) [Coupler M17], for which the Gamma in series [1] (setting [5]) is given as 3.5. The “λmax(nm) (+-0.5)” value in series [2] (setting [5]) turned out to be 550.5 nm.
